According to patent publication US11504339B2, “Compositions comprising urolithin a and uses thereof in treating kidney injury” (priority 2020, dated 2022):

How the values were obtained:
[1] = tested on: renal apoptosis; assay: TUNEL immunofluorescence of kidney sections; assay type: in vivo, mouse
Description: Kidney sections were deparaffinized in xylene, rehydrated, and washed. After antigen retrieval, tissue sections were stained with fluorescein-labeled terminal deoxynucleotidyl transferase dUTP nick end labeling (TUNEL) kit (Roche, Mannheim, Germany). Slides were mounted using Vectashield Mounting Media containing DAPI (Vector Laboratories, Burlingame, Calif.). Tissue sections were imaged using the EVOS FL fluorescence microscope at 20× original magnification. TUNEL-positive cells from ten fields per kidney section and five sections per group of at least four animals were quantified using the ImageJ software's particle counter by thresholding for green fluorescence.

[2] = tested on: miRs and stress responsive genes; assay: Real-time PCR of renal cortex (miRs and stress responsive genes); assay type: in vivo, mouse
Method: Approximately 5 mg of kidney cortex was homogenized in Trizol solution. Micro RNA and large RNA were sequentially extracted and purified with E.Z.N.A. Micro RNA Kit (Omega Bio-tek, Norcross, Ga.) following manufacturer instructions. RNA concentrations were determined using the NanoQuant plate reader (Tecan Infinite M200). Reverse transcription for large RNA and miRNA were separately carried out using iScript gDNA Clear cDNA Synthesis Kit (Bio-Rad) and the miScript II RT Kit (Qiagen, Hilden, Germany), respectively. HiSpec Buffer was used in the latter RT reaction to target mature miRNA, and 1 μg of template RNA was used for all RT reactions. The CFX96 Touch Real-Time PCR Detection System (Bio-Rad) was used for qPCR. For gene expression, cDNA was amplified using appropriate primers (see Table 1), along with the iTaq Universal SYBR Green Supermix (Bio-Rad). Primers were pre-designed and validated by Harvard PGA Primerbank.
For miRNA expression, cDNA was amplified using miScript Primer Assays for miR-192-5p and miR-140-5p (Qiagen), along with the miScript SYBR Green PCR Kit (Qiagen). ΔCt values were calculated with β-actin (gene expression) or RNU6 (miRNA) normalization, and fold change of the gene of interest between groups was expressed as 2^−ΔΔCt.

[3] = tested on: NRF2, P53, mitochondrial OXPHOS complexes; assay: Western blot of kidney cortex; assay type: in vivo, mouse
Method: Approximately 5 mg of kidney cortex from each mouse was homogenized in cold RIPA buffer. After centrifugation, the supernatant was collected and protein concentration was determined using the Bradford assay (Thermo Scientific, Waltham, Mass.). Approximately 30 μg of protein was subjected to denaturing SDS-PAGE. The gel-separated proteins were transferred to a 0.45 μm nitrocellulose membrane, followed by standard Western blot protocol.
Primary antibodies Nrf2 (CAT #MBS2538072, MyBiosource, San Diego, Calif.), P53 (CAT #928, Cell Signaling Technology, Danvers, Mass.), and GAPDH (CAT #2118, Cell Signaling Technology) were diluted at 1:1000, while Total OXPHOS Cocktail (CAT #ab110413, Abcam, Los Angeles, Calif.) was diluted at 1:250. HRP-conjugated secondary antibodies (Thermo Scientific): goat anti-mouse IgG and anti-rabbit igG were diluted at 1:5000. The ECL reagent was used to develop protein signals, and images were captured by the ChemiDoc imaging system (Bio-Rad, Hercules, Calif.).

[4] = tested on: intracellular NAD; assay: Intracellular NAD+ measurement in kidney cortex; assay type: in vivo, mouse; conditions: normalized to total protein
Method: Approximately 5 mg of kidney cortex from each mouse was homogenized in cold RIPA buffer. After centrifugation, approximately 50 μL of supernatant was processed in triplicate using Amplite Fluorimetric NAD Assay Kit (AAT Bioquest, Sunnyvale, Calif.) while following manufacturer instructions. Fluorescence at 420/480 nm was measured using the plate reader (Tecan Infinite M200) and NAD concentration determined using a standard curve constructed on the same day of the experiment. Protein concentration of the lysate was determined by the Bradford Assay (Bio-Rad) and served as normalization.

[5] = tested on: CIS-resistant A2780 ovarian cancer cells; assay: Cell viability of cisplatin-resistant A2780 cells, UA plus CIS; assay type: cell-based; conditions: alone vs combination at the same concentrations
[6] = CIS control compared to the P2Ns-GA UA and negative control groups
[7] = CIS control compared with the P2Ns-GA UA and negative control groups
[8] = at sacrifice, normalized to U6 snRNA

Row | Compound | renal apoptosis (TUNEL positive cells) [1] | renal expression of Mt1 (NRF2-inducible gene) [2, 6] | renal expression of Srxn1 (NRF2-inducible gene) [2, 6] | renal expression of Txnrd1 (NRF2-inducible gene) [2, 6] | renal expression of Atf3 (P53-inducible gene) [2, 7] | renal expression of Cdkn1a (P21) (P53-inducible gene) [2, 7] | renal expression of Trp53inp1 (SIP) (P53-inducible gene) [2, 7] | renal miR-140-5p expression [2, 8] | renal miR-192-5p expression [2, 8] | PARP1 expression ([2]; normalized to β-actin) | expression of genes associated with hypoxia (HIF1α, Pgk1) ([2]; normalized to β-actin) | mitochondrial complexes I, II, III, and IV / deficiencies in oxidative phosphorylation ([3]; Western blot, kidney cortex) | renal expression of the NRF2 protein ([3]; compared to the P2Ns-GA UA and negative control groups) | intracellular NAD [4] | cell death / cell viability [5]
1 | N.N.[Cl][Pt][Cl] [CIS, Cis-diamminedichloridoplatinum] | increased incidences | 8-12 fold | 4-5 fold | 7-14 fold | 3-4 fold | 7-49 fold | 9-12 fold | reductions | reductions | elevated | decreased expression | marked decreases | significantly higher | reductions | failed to cause cell death
2 | O=c1oc2cc(O)ccc2c2ccc(O)cc12 [UA, 3,8-Dihydroxybenzo[c]chromen-6-one] |  |  |  |  |  |  |  |  |  |  |  |  |  |  | failed to cause cell death
